Source: patent publication US9796753B2, “N-substituted indenoisoquinolines and syntheses thereof” (Purdue Research Foundation, priority 2005, dated 2017)
Where two headings read alike, the source gives them in different places. Blank lines part the entries; values can stand above or below the compound they belong to.

Assays:
breast MDA-MB-435 = assay: COMPARE screening (NCI human cancer cell line screen), cytotoxicity GI50; type: cell-based; details: Homo sapiens
[1] = test system: all human cancer cell lines successfully tested; assay: NCI screen mean graph midpoint (MGM) for growth inhibition; type: cell-based
Summary of the method: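 NCI60 panel cells exposed to compound at 100, 10, 1, 0.1 and 0.01 μM for 48 h, then sulforhodamine B staining. Percentage growth versus control plotted against log concentration; MGM is the midpoint across all lines tested.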

lung HOP-62 = assay: COMPARE screening (NCI human cancer cell line screen), cytotoxicity GI50; type: cell-based
Summary of the method: (§1)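 Sulforhodamine B read-out after 48 h exposure over five log concentrations (0.01-100 μM) in the NCI 60-cell-line panel. GI50 derived from percentage growth, as OD ratio to control, versus log10 concentration.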

CNS SF-539 = assay: as above; type: cell-based
Summary of the method: as §1

melanoma UACC-62 = assay: as above; type: cell-based
Summary of the method: as §1

ovarian OVCAR-3 = assay: as above; type: cell-based
Summary of the method: as §1

renal SN12C = assay: as above; type: cell-based
Summary of the method: as §1

prostate DU-145 = assay: as above; type: cell-based
Summary of the method: as §1

colon HCT-116 = assay: as above; type: cell-based
Summary of the method: as §1

breast MCF-7 = assay: NCI60 antiproliferative activity, cytotoxicity GI50; type: cell-based, human
Procedure: Selected compounds were tested for antiproliferative activity in the National Cancer Institute's developmental therapeutics assay 60 cell line screen (NCI60). The cells were incubated with the tested compounds at 100, 10, 1, 0.1, and 0.01 μM concentrations for 48 h before treatment with sulforhodamine B dye. Optical densities were recorded, and their ratios relative to that of the control were plotted as percentage growth against the log 10 of the tested compound concentrations.

[2] = MDA-MB-435, read-out: cytotoxicity (GI50) breast MDA-MB-435
[3] = Table 1, average GI50 of all cell lines tested (approximately 55), test range 10^−8 to 10^−4 molar
[4] = Homo sapiens, HOP-62, read-out: cytotoxicity (GI50) lung HOP-62
[5] = Homo sapiens, CNSSF-539, read-out: cytotoxicity (GI50) CNS SF-539
[6] = Homo sapiens, UACC-62, read-out: cytotoxicity (GI50) melanoma UACC-62
[7] = Homo sapiens, OVCAR-3, read-out: cytotoxicity (GI50) ovarian OVCAR-3
[8] = Homo sapiens, SN12C, read-out: cytotoxicity (GI50) renal SN12C
[9] = Homo sapiens, DU-145, read-out: cytotoxicity (GI50) prostate DU-145
[10] = Homo sapiens, HCT-116, read-out: cytotoxicity (GI50) colon HCT-116

- melting point: 204 to 207 °C
SMILES: Cl.NCCCCCCCCCn1c2c(c3ccccc3c1=O)C(=O)c1ccccc1-2 [Compound 5as, 6-(9-Aminononyl)-5,6-dihydro-5,11-dioxo-11H-indeno[1,2-c]isoquinoline Hydrochloride]
- GI50 (breast MDA-MB-435; [2]): 9.55 µM
- MGM (mean GI50 across cell lines) [1, 3]: 8130 nM
- GI50 (lung HOP-62; [4]): 6.76 µM
- GI50 (CNS SF-539; [5]): 9.77 µM
- GI50 (melanoma UACC-62; [6]): 9.33 µM
- GI50 (ovarian OVCAR-3; [7]): 9550 nM
- GI50 (renal SN12C; [8]): 8.51 µM
- GI50 (prostate DU-145; [9]): 6.03 µM
- GI50 (colon HCT-116; [10]): 6.46 µM

- melting point: 189 to 192 °C
SMILES: Cl.NCCCCCCCCCCn1c2c(c3ccccc3c1=O)C(=O)c1ccccc1-2 [Compound 5at, 6-(10-Aminodecyl)-5,6-dihydro-5,11-dioxo-11H-indeno[1,2-c]isoquinoline Hydrochloride]
- GI50 (breast MDA-MB-435; [2]): 11.7 µM
- MGM (mean GI50 across cell lines) [1, 3]: 5500 nM
- GI50 (lung HOP-62; [4]): 4.79 µM
- GI50 (CNS SF-539; [5]): 1.82 µM
- GI50 (melanoma UACC-62; [6]): 13.8 µM
- GI50 (ovarian OVCAR-3; [7]): 10700 nM
- GI50 (renal SN12C; [8]): 3.31 µM
- GI50 (prostate DU-145; [9]): 3.47 µM
- GI50 (colon HCT-116; [10]): 2.75 µM

- melting point: 125 to 129 °C
SMILES: Cl.NCCCCCCCCCCCn1c2c(c3ccccc3c1=O)C(=O)c1ccccc1-2 [Compound 5au, 6-(11-Aminoundecyl)-5,6-dihydro-5,11-dioxo-11H-indeno[1,2-c]isoquinoline Hydrochloride]
- GI50 (breast MDA-MB-435; [2]): 11 µM
- MGM (mean GI50 across cell lines) [1, 3]: 5130 nM
- GI50 (lung HOP-62; [4]): 2.19 µM
- GI50 (CNS SF-539; [5]): 2.04 µM
- GI50 (melanoma UACC-62; [6]): 1.7 µM
- GI50 (ovarian OVCAR-3; [7]): 2090 nM
- GI50 (renal SN12C; [8]): 2 µM
- GI50 (prostate DU-145; [9]): 4.57 µM
- GI50 (colon HCT-116; [10]): 1.91 µM

SMILES: COc1cc2c(=O)n(CCCN3CCOCC3)c3c(c2cc1O)C(=O)c1cc2c(cc1-3)OCO2 [Compound 18]
- MGM (mean GI50 across cell lines) ([1]; Table 6, all human cancer cell lines successfully tested, range 10^−8 to 10^−4 molar, with standard error): 400 ± 5 nM
- GI50 (breast MCF-7): 100 nM
- GI50 (lung HOP-62): 0.3 µM
- GI50 (CNS SF-539): 0.3 µM
- GI50 (melanoma UACC-62): 0.3 µM
- GI50 (ovarian OVCAR-3): 900 nM
- GI50 (renal SN12C): 0.2 µM
- GI50 (prostate DU-145): 0.3 µM
- GI50 (colon HCT-116): 0.39 µM

SMILES: CC[C@@]1(O)C(=O)OCc2c1cc1n(c2=O)Cc2cc3ccccc3nc2-1 [Compound S-1, camptothecin, reference compound]
- GI50 (breast MDA-MB-435; MDA-MB-435, Table 1, concentration corresponding to 50% growth inhibition, read-out: cytotoxicity (GI50) breast MDA-MB-435): 0.04 µM
- GI50 (breast MDA-MB-435; breast MDA-MB-435, concentration corresponding to 50% growth inhibition, read-out: cytotoxicity (GI50 in μM) breast MDA-MB-435): 0.04 µM
- GI50 ([1]; Homo sapiens, read-out: MGM GI50): 40.5 ± 18.7 nM
- MGM (mean graph midpoint for growth inhibition) [1, 3]: .0405 ± 0.0187 µM
- GI50 ([1]; all human cancer cell lines successfully tested, read-out: MGM (mean graph midpoint for growth inhibition)): 40.5 ± 18.7 nM
- GI50 (breast MCF-7; Homo sapiens, MCF7, Table 6, NCI60, 48 h, sulforhodamine B, read-out: Cytotoxicity (GI50) breast MCF-7): 10 nM
- GI50 (lung HOP-62; Homo sapiens, HOP-62, Table 1, concentration corresponding to 50% growth inhibition, read-out: cytotoxicity (GI50) lung HOP-62): 0.01 µM
- GI50 (lung HOP-62; Homo sapiens, HOP-62, Table 6, NCI60, 48 h, sulforhodamine B, read-out: Cytotoxicity (GI50) lung HOP-62): 0.01 µM
- GI50 (lung HOP-62; Homo sapiens, lung HOP-62, concentration corresponding to 50% growth inhibition, read-out: cytotoxicity (GI50 in μM) lung HOP-62): 0.01 µM
- GI50 (CNS SF-539; Homo sapiens, CNSSF-539, CNS SF-539, concentration corresponding to 50% growth inhibition, read-out: cytotoxicity (GI50 in μM) CNS SF-539): 0.01 µM
- GI50 (CNS SF-539; Homo sapiens, CNSSF-539, Table 1, concentration corresponding to 50% growth inhibition, read-out: cytotoxicity (GI50) CNS SF-539): 0.01 µM
- GI50 (melanoma UACC-62; Homo sapiens, UACC-62, Table 1, concentration corresponding to 50% growth inhibition, read-out: cytotoxicity (GI50) melanoma UACC-62): 0.01 µM
- GI50 (melanoma UACC-62; Homo sapiens, UACC-62, Table 6, NCI60, 48 h, sulforhodamine B, read-out: Cytotoxicity (GI50) melanoma UACC-62): 0.01 µM
- GI50 (melanoma UACC-62; Homo sapiens, melanoma UACC-62, concentration corresponding to 50% growth inhibition, read-out: cytotoxicity (GI50 in μM) melanoma UACC-62): 0.01 µM
- GI50 (renal SN12C; Homo sapiens, SN12C, Table 1, concentration corresponding to 50% growth inhibition, read-out: cytotoxicity (GI50) renal SN12C): 0.02 µM
- GI50 (renal SN12C; Homo sapiens, SN12C, Table 6, NCI60, 48 h, sulforhodamine B, read-out: Cytotoxicity (GI50) renal SN12C): 0.02 µM
- GI50 (renal SN12C; Homo sapiens, renal SN12C, concentration corresponding to 50% growth inhibition, read-out: cytotoxicity (GI50 in μM) renal SN12C): 0.02 µM
- GI50 (prostate DU-145; Homo sapiens, DU-145, Table 1, concentration corresponding to 50% growth inhibition, read-out: cytotoxicity (GI50) prostate DU-145): 0.01 µM
- GI50 (prostate DU-145; Homo sapiens, DU-145, Table 6, NCI60, 48 h, sulforhodamine B, read-out: Cytotoxicity (GI50) prostate DU-145): 0.01 µM
- GI50 (prostate DU-145; Homo sapiens, prostate DU-145, concentration corresponding to 50% growth inhibition, read-out: cytotoxicity (GI50 in μM) prostate DU-145): 0.01 µM
- GI50 (colon HCT-116; Homo sapiens, HCT-116, Table 1, concentration corresponding to 50% growth inhibition, read-out: cytotoxicity (GI50) colon HCT-116): 0.03 µM
- GI50 (colon HCT-116; Homo sapiens, HCT-116, Table 6, NCI60, 48 h, sulforhodamine B, read-out: Cytotoxicity (GI50) Colon HCT-116): 0.03 µM
- GI50 (colon HCT-116; Homo sapiens, colon HCT-116, concentration corresponding to 50% growth inhibition, read-out: cytotoxicity (GI50 in μM) colon HCT-116): 0.03 µM
